# Target: T1, human Werner helicase (WRN-BV08, Uniprot Q14191, amino acids 517-1235 with L1074F point mutation) (Homo sapiens, UniProt Q14191, L1074F)
# T1 construct: Uniprot Q14191, amino acids 517-1235 with L1074F point mutation; TEV-cleavable 8×His (C, cleaved yes); made in house; host or cells: Sf9 insect cells (baculovirus)
# Test: WRN (BV08) ADP-Glo Assay
# Type: biochemical
# Settings: 0.15 nM WRN, 5 μM ATP, 0.1 nM DNA duplex, 15 min preincubation, 60 min at 25° C., pH 7.5, 1% DMSO; read-out: ADP-Glo_hWRN_IC50
# Summary of the method: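 ADP produced by WRN helicase fragment 517-1235 (L1074F, baculovirus/Sf9, untagged) read by ADP-Glo luminescence after 60 min at 25 °C with 5 μM ATP and 0.1 nM duplex DNA, following 15 min compound preincubation. Final enzyme 0.15 nM in Bicine pH 7.5 buffer, 1% DMSO; 20 μM NSC-617145 defined full inhibition.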
# T1 sequence (Q14191 with tags, fused parts or gaps L1074F limits assumed): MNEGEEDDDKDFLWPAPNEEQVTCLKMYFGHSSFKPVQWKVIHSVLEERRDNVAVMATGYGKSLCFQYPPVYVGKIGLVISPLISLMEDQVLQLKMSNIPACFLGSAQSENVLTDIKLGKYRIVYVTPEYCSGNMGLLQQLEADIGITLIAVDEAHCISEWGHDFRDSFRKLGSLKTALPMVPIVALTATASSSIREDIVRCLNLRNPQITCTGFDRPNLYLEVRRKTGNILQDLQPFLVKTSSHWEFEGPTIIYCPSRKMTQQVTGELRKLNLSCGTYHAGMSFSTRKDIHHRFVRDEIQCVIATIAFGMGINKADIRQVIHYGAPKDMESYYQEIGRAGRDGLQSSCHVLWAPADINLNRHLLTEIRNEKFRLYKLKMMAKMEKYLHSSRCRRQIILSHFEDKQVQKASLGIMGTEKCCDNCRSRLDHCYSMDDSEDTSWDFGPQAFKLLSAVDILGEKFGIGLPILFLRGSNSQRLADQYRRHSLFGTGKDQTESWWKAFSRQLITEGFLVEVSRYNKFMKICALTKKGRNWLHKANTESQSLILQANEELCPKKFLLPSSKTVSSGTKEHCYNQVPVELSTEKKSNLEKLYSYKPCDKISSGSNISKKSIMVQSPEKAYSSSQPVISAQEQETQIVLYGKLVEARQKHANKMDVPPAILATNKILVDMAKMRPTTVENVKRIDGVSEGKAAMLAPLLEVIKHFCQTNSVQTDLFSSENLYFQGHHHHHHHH
row,Structure (SMILES),IC50 [µM]
1,"O=C(CCc1c[nH]c2cc(F)ccc12)N(Cc1ccncc1)C1C=CS(=O)(=O)C1 (stereo not shown) [I-368, N-(1,1-dioxo-2,3-dihydro-1lambda6-thiophen-3-yl)-3-(6-fluoro-1H-indol-3-yl)-N-[(pyridin-4-yl)methyl]propanamide]",10 to 50
2,"O=C(Cc1ccc(-n2cccc2)cc1)N(Cc1ccc[nH]c1=O)C1C=CS(=O)(=O)C1 (stereo not shown) [I-369, N-(1,1-dioxo-2,3-dihydro-1lambda6-thiophen-3-yl)-N-[(2-oxo-1,2-dihydropyridin-3-yl)methyl]-2-[4-(1H-pyrrol-1-yl)phenyl]acetamide]",10 to 50
3,"O=C(Cc1ccc(-c2nn[nH]n2)cc1)N(Cc1ccncc1)C1C=CS(=O)(=O)C1 (stereo not shown) [I-370, N-(1,1-dioxo-2,3-dihydro-1lambda6-thiophen-3-yl)-N-[(pyridin-4-yl)methyl]-2-[4-(2H-1,2,3,4-tetrazol-5-yl)phenyl]acetamide]",> 50
4,"O=C(Cc1nc(C(F)(F)F)cs1)N(Cc1ccncc1)C1C=CS(=O)(=O)C1 (stereo not shown) [I-371, N-(1,1-dioxo-2,3-dihydro-1lambda6-thiophen-3-yl)-N-[(pyridin-4-yl)methyl]-2-[4-(trifluoromethyl)-1,3-thiazol-2-yl]acetamide]",> 50
5,"O=C(Cc1ccc(-n2cccc2)cc1)N(Cc1ccccc1N1CCC(O)C1)C1C=CS(=O)(=O)C1 (stereo not shown) [I-372, N-(1,1-dioxo-2,3-dihydro-1lambda6-thiophen-3-yl)-N-{[2-(3-hydroxypyrrolidin-1-yl)phenyl]methyl}-2-[4-(1H-pyrrol-1-yl)phenyl]acetamide]",> 50
6,"O=C(Cc1ccc(-n2cccc2)cc1)N(Cc1ccccc1)C1C=C(CO)S(=O)(=O)C1 (stereo not shown) [I-373, N-benzyl-N-[5-(hydroxymethyl)-1,1-dioxo-2,3-dihydro-1lambda6-thiophen-3-yl]-2-[4-(1H-pyrrol-1-yl)phenyl]acetamide]",> 50
7,"COCc1cc(-c2ccc(F)cc2)ccc1CC(=O)N(Cc1ccncc1)C1C=CS(=O)(=O)C1 (stereo not shown) [I-376, N-(1,1-dioxo-2,3-dihydro-1lambda6-thiophen-3-yl)-2-[4′-fluoro-3-(methoxymethyl)-[1,1′-biphenyl]-4-yl]-N-[(pyridin-4-yl)methyl]acetamide]",> 50
8,"CC(=O)N(C)C(C(=O)N(Cc1ccncc1)C1C=CS(=O)(=O)C1)c1ccc(-n2cccc2)cc1 (stereo not shown) [I-377, N-(1,1-dioxo-2,3-dihydro-1lambda6-thiophen-3-yl)-2-(N-methylacetamido)-N-[(pyridin-4-yl)methyl]-2-[4-(1H-pyrrol-1-yl)phenyl]acetamide]",> 50
9,"COc1cc(CN(C(=O)Cc2cnn(-c3ccc(Cl)cc3)c2)C2C=CS(=O)(=O)C2)ccn1 (stereo not shown) [I-379, 2-[1-(4-chlorophenyl)-1H-pyrazol-4-yl]-N-(1,1-dioxo-2,3-dihydro-1lambda6-thiophen-3-yl)-N-[(2-methoxypyridin-4-yl)methyl]acetamide]",> 50
10,"COc1cc(CN(C(=O)Cc2ccn(-c3ccc(Cl)cc3)n2)C2C=CS(=O)(=O)C2)ccn1 (stereo not shown) [I-380, 2-[1-(4-chlorophenyl)-1H-pyrazol-3-yl]-N-(1,1-dioxo-2,3-dihydro-1lambda6-thiophen-3-yl)-N-[(2-methoxypyridin-4-yl)methyl]acetamide]",> 50
11,"COc1cc(CN(C(=O)Cc2ccc(-n3ccccc3=O)cc2F)C2C=CS(=O)(=O)C2)ccn1 (stereo not shown) [I-381, N-(1,1-dioxo-2,3-dihydro-1lambda6-thiophen-3-yl)-2-[2-fluoro-4-(2-oxo-1,2-dihydropyridin-1-yl)phenyl]-N-[(2-methoxypyridin-4-yl)methyl]acetamide]",> 50
12,"O=C(Cc1ccc(-n2cccc2CCO)cc1)N(Cc1ccccc1)C1C=CS(=O)(=O)C1 (stereo not shown) [I-383, N-benzyl-N-(1,1-dioxo-2,3-dihydro-1lambda6-thiophen-3-yl)-2-{4-[2-(2-hydroxyethyl)-1H-pyrrol-1-yl]phenyl}acetamide]",> 50
13,"COCCc1cccn1-c1ccc(CC(=O)N(Cc2ccccc2)C2C=CS(=O)(=O)C2)cc1 (stereo not shown) [I-384, N-benzyl-N-(1,1-dioxo-2,3-dihydro-1lambda6-thiophen-3-yl)-2-{4-[2-(2-methoxyethyl)-1H-pyrrol-1-yl]phenyl}acetamide]",> 50
14,"COc1cc(CN(C(=O)C2CN(C)c3cc(-c4ccc(F)cc4)ccc32)C2C=CS(=O)(=O)C2)ccn1 (stereo not shown) [I-385, N-(1,1-dioxo-2,3-dihydro-1lambda6-thiophen-3-yl)-6-(4-fluorophenyl)-N-[(2-methoxypyridin-4-yl)methyl]-1-methyl-2,3-dihydro-1H-indole-3-carboxamide]",> 50
15,"N#CCCN(C(=O)Cc1ccc(-c2ccc(F)cc2)cc1)C1C=CS(=O)(=O)C1 (stereo not shown) [I-386, N-(2-cyanoethyl)-N-(1,1-dioxo-2,3-dihydro-1lambda6-thiophen-3-yl)-2-{4′-fluoro-[1,1′-biphenyl]-4-yl}acetamide]",> 50
16,"CN(C)S(=O)(=O)c1ccc(CC(=O)N(Cc2ccncc2)C2C=CS(=O)(=O)C2)cc1 (stereo not shown) [I-388, 2-[4-(dimethylsulfamoyl)phenyl]-N-(1,1-dioxo-2,3-dihydro-1lambda6-thiophen-3-yl)-N-[(pyridin-4-yl)methyl]acetamide]",> 50

row,Structure (SMILES),IC50 [µM]
1,"O=C(Cc1ccc(C(F)(F)F)cn1)N(Cc1ccncc1)C1C=CS(=O)(=O)C1 (stereo not shown) [I-389, N-(1,1-dioxo-2,3-dihydro-1lambda6-thiophen-3-yl)-N-[(pyridin-4-yl)methyl]-2-[5-(trifluoromethyl)pyridin-2-yl]acetamide]",> 50
2,"O=C(Cc1ccn(-c2ccccc2)n1)N(Cc1ccncc1)C1C=CS(=O)(=O)C1 (stereo not shown) [I-390, N-(1,1-dioxo-2,3-dihydro-1lambda6-thiophen-3-yl)-2-(1-phenyl-1H-pyrazol-3-yl)-N-[(pyridin-4-yl)methyl]acetamide]",> 50
3,"O=C(CCc1nc2cc(Cl)ccc2s1)N(Cc1ccncc1)C1C=CS(=O)(=O)C1 (stereo not shown) [I-391, 3-(5-chloro-1,3-benzothiazol-2-yl)-N-(1,1-dioxo-2,3-dihydro-1lambda6-thiophen-3-yl)-N-[(pyridin-4-yl)methyl]propanamide]",> 50
4,"O=C(Cc1cccc(CC(F)(F)F)c1)N(Cc1ccncc1)C1C=CS(=O)(=O)C1 (stereo not shown) [I-393, N-(1,1-dioxo-2,3-dihydro-1lambda6-thiophen-3-yl)-N-[(pyridin-4-yl)methyl]-2-[3-(2,2,2-trifluoroethyl)phenyl]acetamide]",> 50
5,"O=C(Cc1ccn(-c2ccc(F)cc2)n1)N(Cc1ccncc1)C1C=CS(=O)(=O)C1 (stereo not shown) [I-394, N-(1,1-dioxo-2,3-dihydro-1lambda6-thiophen-3-yl)-2-[1-(4-fluorophenyl)-1H-pyrazol-3-yl]-N-[(pyridin-4-yl)methyl]acetamide]",> 50
6,"O=C(CCc1cc2ccccc2[nH]1)N(Cc1ccncc1)C1C=CS(=O)(=O)C1 (stereo not shown) [I-396, N-(1,1-dioxo-2,3-dihydro-1lambda6-thiophen-3-yl)-3-(1H-indol-2-yl)-N-[(pyridin-4-yl)methyl]propanamide]",> 50
7,"O=C(N[C@H](Cc1c[nH]c2ccccc12)C(=O)N(Cc1ccncc1)C1C=CS(=O)(=O)C1)C1CC1 (stereo partly drawn) [I-397, (2R)-2-(cyclopropylformamido)-N-(1,1-dioxo-2,3-dihydro-1lambda6-thiophen-3-yl)-3-(1H-indol-3-yl)-N-[(pyridin-4-yl)methyl]propanamide]",> 50
8,"COc1cc(CN(C(=O)C2Cc3cc(-c4ccc(F)cc4)ccc3O2)C2C=CS(=O)(=O)C2)ccn1 (stereo not shown) [I-399, N-(1,1-dioxo-2,3-dihydro-1lambda6-thiophen-3-yl)-5-(4-fluorophenyl)-N-[(2-methoxypyridin-4-yl)methyl]-2,3-dihydro-1-benzofuran-2-carboxamide]",> 50
9,"O=C(Cc1ccc(-c2ccc(F)cc2)c(C(F)F)c1)N(Cc1ccncc1)C1C=CS(=O)(=O)C1 (stereo not shown) [I-401, 2-[2-(difluoromethyl)-4′-fluoro-[1,1′-biphenyl]-4-yl]-N-(1,1-dioxo-2,3-dihydro-1lambda6-thiophen-3-yl)-N-[(pyridin-4-yl)methyl]acetamide]",> 50
10,"O=C(Cc1ccc(-n2cccc2)cc1)N(Cc1nc(C2CC2)cs1)[C@H]1C=CS(=O)(=O)C1 [I-402, N-[(4-cyclopropyl-1,3-thiazol-2-yl)methyl]-N-[(3S)-1,1-dioxo-2,3-dihydro-1lambda6-thiophen-3-yl]-2-[4-(1H-pyrrol-1-yl)phenyl]acetamide]",> 50
11,"O=C(Cn1cc(-c2ccccc2)nn1)N(Cc1ccncc1)C1C=CS(=O)(=O)C1 (stereo not shown) [I-403, N-(1,1-dioxo-2,3-dihydro-1lambda6-thiophen-3-yl)-2-(4-phenyl-1H-1,2,3-triazol-1-yl)-N-[(pyridin-4-yl)methyl]acetamide]",> 50
12,"O=C(Cc1cnn(-c2ccccc2)n1)N(Cc1ccncc1)C1C=CS(=O)(=O)C1 (stereo not shown) [I-406, N-(1,1-dioxo-2,3-dihydro-1lambda6-thiophen-3-yl)-2-(2-phenyl-2H-1,2,3-triazol-4-yl)-N-[(pyridin-4-yl)methyl]acetamide]",> 50
13,"O=C(Cn1cc(C2CCOC2)cn1)N(Cc1ccncc1)C1C=CS(=O)(=O)C1 (stereo not shown) [I-407, N-(1,1-dioxo-2,3-dihydro-1lambda6-thiophen-3-yl)-2-[4-(oxolan-3-yl)-1H-pyrazol-1-yl]-N-[(pyridin-4-yl)methyl]acetamide]",> 50
14,"O=C(Cn1cc(Br)cn1)N(Cc1ccncc1)C1C=CS(=O)(=O)C1 (stereo not shown) [I-408, 2-(4-bromo-1H-pyrazol-1-yl)-N-(1,1-dioxo-2,3-dihydro-1lambda6-thiophen-3-yl)-N-[(pyridin-4-yl)methyl]acetamide]",> 50
15,"O=C(Cc1cnn(-c2ccccc2)c1)N(Cc1ccncc1)C1C=CS(=O)(=O)C1 (stereo not shown) [I-409, N-(1,1-dioxo-2,3-dihydro-1lambda6-thiophen-3-yl)-2-(1-phenyl-1H-pyrazol-4-yl)-N-[(pyridin-4-yl)methyl]acetamide]",> 50
